Patent US7648993B2, “Methods of treating disorders with Group I mGluR antagonists” (Brown University, priority 2001, dated 2010)

Key:
[1] = test system: CA1 neurons in hippocampal slices; assay: Synaptically evoked NMDAR-mediated EPSCs in CA1 neurons of hippocampal slices; assay type: cell-based, Long Evans rats; settings: 5 min, 30 minutes after treatment, +40 mV
Experimental: The loss of synaptic NR1 clusters clearly distinguishes the effect of DHPG from other treatments that selectively affect AMPARs^2,17-19.
Hippocampal slices were prepared from P21-30 Long Evans rats (Charles River, Cambridge, Mass.) as described previously^13,14. Slices recovered for 1-2 h at room temperature in artificial cerebrospinal fluid (ACSF) containing 124 mM NaCl, 5 mM KCl, 1.25 mM NaH2PO4, 26 mM NaHCO3, 1 mM MgCl2, 2 mM CaCl2, 10 mM dextrose, saturated with 95% O2, 5% CO2. For recording, slices were placed in a submersion recording chamber and perfused with 30° C. ACSF at a rate of 2 ml/min.
Synaptically evoked-NMDAR-mediated EPSCs were recorded from area CA1 as described previously for visual cortex^20. NMDA-evoked currents were examined by picospritzing 1 mM NMDA (made in ACSF), applied for 3.5-12.5 ms, near the proximal portion of the primary apical dendrite. NMDA-evoked currents were elicited once every two minutes. Stimulation intensity or picospritz pulse duration/pressure were adjusted to evoke an inward current with amplitude of 50 pA or greater.

[2] = test system: hippocampal area CA1 slices; assay: Field potential (FP) recordings in area CA1 of rat hippocampal slices (DHPG-LTD); assay type: cell-based, Long Evans rats; settings: for FP, % of pre-DHPG baseline (synaptic responses stabilized at a depressed level): after drug wash out
Experimental: All animals were used in accordance with procedures approved by the Brown University Institutional Animal Care and Use Committee. Hippocampal slices were prepared from postnatal day 21-30 (P21-30) Long Evans rats (Charles River, Cambridge, Mass.) and mGluR5 knockout mice (Lu et al. 1997) as described previously (Huber et al. 2000). For most experiments, CA3 was removed immediately after sectioning. Slices recovered for 1-2 h at room temperature (rats) or at 30° C. (mice) in artificial cerebrospinal fluid (ACSF) containing (in mM) 124 NaCl, 5 KCl, 1.25 NaH2PO4, 26 NaHCO3, 1 MgCl2, 2 CaCl2, and 10 dextrose, saturated with 95% O2-5% CO2. For recording, slices were placed in a submersion recording chamber and perfused with 30° C. ACSF at a rate of 2 ml/min.
Synaptically evoked field potentials (FPs) were recorded from area CA1 as described previously. Sharp microelectrode and whole cell voltage-clamp recordings were made using Axoclamp 2B and Axopatch 1D amplifiers (Axon Instruments), respectively. Sharp electrodes (80-120 M Ω) were filled with 3 M K-acetate and 10 mM KCl; patch pipettes (3-7 M Ω) were filled with (in mM) 134 K-gluconate, 6 KCl, 4 NaCl, 10 HEPES, 0.2 EGTA, 4 MgATP, 0.3 TrisGTP, and 14 phosphocreatine. The pH of the internal solution was adjusted to 7.25 with KOH, and the osmolarity was adjusted to 300 mOsm with H2O or sucrose. Only experiments in which there was less than a 15% change in series resistance were included in the analysis. Waveforms were filtered at 2 kHz and acquired and digitized at 10 kHz on a PC using Experimenter's Workbench (DataWave Systems, Boulder, Colo.).
Baseline responses were collected every 10-30 s using a stimulation intensity (10-30 μA; 0.2 ms) yielding 50-60% of the maximal response. Experiments in which there was a>5% drift in the response magnitude during the 20-min baseline period before DHPG or LFS were excluded from further analysis. All experiments with mGluR5 KO mice used wildtype littermates as controls and were performed blind to the genotype, later determined by Therion (Troy, N.Y.). LFS consisted of 900 pulses at 1 Hz. PP-LFS consisted of 900 pairs of stimuli (50-ms interstimulus interval) delivered at 1 Hz. In saturation experiments, stimulus duration was increased from 0.2 to 0.4 ms during PP-LFS.
The group data were analyzed as follows: 1) the initial slopes of the FPs and excitatory postsynaptic potentials (EPSPs), or the amplitude of the excitatory postsynaptic currents (EPSCs), for each experiment were expressed as percentages of the preconditioning or DHPG baseline average, 2) the time scale in each experiment was converted to time from the onset of conditioning or DHPG, and 3) the time-matched, normalized data were averaged across experiments and expressed in the text and figures as the means ±SE. Significant differences between groups were determined using an independent t-test or ANOVA performed on a 5-min average taken 1 h after LFS or DHPG application.
R,S-DHPG and D-2-amino-5-phosphonopentanoic acid (D-AP5) was purchased from Tocris (St. Louis, Mo.); all other chemicals were from Sigma Chemical (St Louis, Mo.). DHPG was prepared as a 100 times stock in H2O, aliquoted and stored at −20° C. Fresh stocks were made once a week. A 10 times stock of AP5 was prepared in ACSF and stored at 4° C. These stocks were diluted in ACSF to achieve their final concentrations. Picrotoxin was dissolved directly into ACSF immediately before use.

For `NC(C(=O)O)c1cc(O)cc(O)c1` (racemic) [DHPG, (RS)-3,5-dihydroxyphenylglycine], the “NMDAR-EPSC amplitude as percent of baseline” value ([1]; DHPG 50 μM) was 70.7±2.9% of baseline, the “NMDAR-EPSC amplitude as percent of baseline” value ([1]; DHPG 100 μM) was 57.7±1.0% of baseline and the “FP slope, % of pre-DHPG baseline after saturation of mGluR-dependent LTD” value ([2]; DHPG 50 μM applied after PP-LFS in D-AP5 50 μM) was 100±5%. For the same compound, the “FP, % of pre-DHPG baseline (synaptic responses stabilized at a depressed level)” value ([2]; DHPG 50 μM, 5 min) was 69±5%, the “DHPG-LTD, two-pathway experiment, unstimulated input” value ([2]; DHPG 50 μM, 5 min, input not stimulated during DHPG) was 68±5% and the “DHPG-LTD, two-pathway experiment, stimulated input” value ([2]; DHPG 50 μM, 5 min, input stimulated during DHPG) was 62±4%. The “magnitude of DHPG-LTD, interleaved control slices without AP5” value ([2]; DHPG 50 μM, 5 min, no AP5) was 85±3%, the “FP, % of pre-DHPG baseline (synaptic responses stabilized at a depressed level)” value ([2]; DHPG 100 μM, 5 min) was 48±1% and the “FP slope, % of pre-DHPG baseline after saturation of NMDAR-dependent LTD” value ([2]; DHPG applied after repeated episodes of LFS) was 81±5%.
